Values of other authors as cited in patent publication US20200360268A1, “INJECTABLE PHARMACEUTICAL COMPOSITION CONTAINING MELOXICAM, AND PREPARATION METHOD THEREFOR” (Jiangsu Hengrui Medicine Co., Ltd., priority 2017, published 2020).
In brackets after ≈: the same amount, converted by molar mass.

Settings: pH 1.2 and 4.0

solubility: 0.6 µg/mL (≈ 1.71 µM)
SMILES: Cc1cnc(NC(=O)C2=C(O)c3ccccc3S(=O)(=O)N2C)s1 [Meloxicam]
